In assay [1] the target is DNA dC->dU-editing enzyme APOBEC-3G (Homo sapiens, UniProt Q9HC16). Description: inhibition of APOBEC3G ssDNA deamination – biochemical, fluorescence, single-stranded DNA substrate, SAR follow-up (AID 602136). It counts as functional. The note with it: read-out: IC50_Mean.
Assay [2] concerns the target DNA dC->dU-editing enzyme APOBEC-3A (Homo sapiens, UniProt P31941). The assay can be described thus: SAR analysis of small molecule inhibitors of APOBEC3A DNA Deaminase via a fluorescence-based single-stranded DNA deaminase assay. It counts as functional. The note with it: read-out: IC50_Mean.
The next assay deals with CHO-K1. Description: Counterscreen for antagonists of the orexin 1 receptor (OX1R; HCRTR1): Homogeneous time resolved fluorescence (HTRF)-based cell-based dose response assay to identify antagonists of the parental CHO-K1 cell line. [Related pubchem assays (depositor defined):AID434989, AID435008, AID463079, AID485270, AID492963, AID492964, AID492965, AID493232, AID504699, AID504701]. The format is functional. The settings on record: Cricetulus griseus.

A short description of assay [3]: Counterscreen for antagonists of the orexin 1 receptor (OX1R; HCRTR1): Fluorescence-based cell-based high throughput dose response assay to identify antagonists of the parental CHO cell line. [Related pubchem assays (depositor defined):AID434989, AID435008, AID463079, AID485270, AID492963, AID492964, AID492965, AID493232, AID504699, AID504701]. It counts as functional.

In the next assay the target is T1, Coagulation factor XII (Homo sapiens, UniProt P00748).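 Note: activated factor XIIa alpha cleaving a fluorogenic AMC peptide substrate; inhibitor potency from loss of enzyme activity.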
T1 sequence (P00748 whole entry): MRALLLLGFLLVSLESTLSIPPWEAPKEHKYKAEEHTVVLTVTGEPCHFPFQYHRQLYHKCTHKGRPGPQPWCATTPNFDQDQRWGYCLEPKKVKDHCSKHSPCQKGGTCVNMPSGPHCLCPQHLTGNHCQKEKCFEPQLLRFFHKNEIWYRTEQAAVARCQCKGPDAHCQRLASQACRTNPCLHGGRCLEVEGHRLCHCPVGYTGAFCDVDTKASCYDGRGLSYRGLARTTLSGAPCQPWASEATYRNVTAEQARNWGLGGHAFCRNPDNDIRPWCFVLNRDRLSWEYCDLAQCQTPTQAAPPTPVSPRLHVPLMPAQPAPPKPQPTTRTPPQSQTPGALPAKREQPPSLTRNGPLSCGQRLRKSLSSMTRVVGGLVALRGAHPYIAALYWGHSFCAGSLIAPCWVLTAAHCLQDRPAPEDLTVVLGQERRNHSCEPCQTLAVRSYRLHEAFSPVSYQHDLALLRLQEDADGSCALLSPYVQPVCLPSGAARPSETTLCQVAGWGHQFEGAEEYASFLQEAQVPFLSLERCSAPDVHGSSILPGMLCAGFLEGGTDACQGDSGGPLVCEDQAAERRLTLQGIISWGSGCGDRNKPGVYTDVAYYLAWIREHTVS
The format is functional.

The target of assay [4] is T2, Orexin/Hypocretin receptor type 1 (Homo sapiens, UniProt O43613).
T2 sequence (O43613 whole entry): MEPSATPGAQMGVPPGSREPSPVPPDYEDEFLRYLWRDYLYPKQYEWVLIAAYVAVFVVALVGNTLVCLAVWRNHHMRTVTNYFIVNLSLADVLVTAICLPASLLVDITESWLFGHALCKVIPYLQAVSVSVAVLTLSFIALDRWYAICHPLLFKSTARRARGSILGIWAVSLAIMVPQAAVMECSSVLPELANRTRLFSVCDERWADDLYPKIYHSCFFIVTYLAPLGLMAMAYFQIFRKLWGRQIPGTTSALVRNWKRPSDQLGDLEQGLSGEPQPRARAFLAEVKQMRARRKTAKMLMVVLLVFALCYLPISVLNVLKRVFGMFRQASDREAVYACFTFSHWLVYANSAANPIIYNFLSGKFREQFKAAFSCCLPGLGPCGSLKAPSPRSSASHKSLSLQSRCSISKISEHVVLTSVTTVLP
The assay can be described thus: Homogeneous Time Resolved Fluorescence (HTRF)-based cell-based high throughput dose response assay for antagonists of the orexin 1 receptor (OX1R; HCRTR1). [Related pubchem assays (depositor defined):AID434989, AID435008, AID463079, AID485270, AID492963, AID492964, AID492965, AID493232, AID504717, AID504718]. It counts as functional.

The target in assay [5] is T2, Orexin/Hypocretin receptor type 1. Description: Fluorescence-based cell-based high throughput dose response assay for antagonists of the orexin 1 receptor (OX1R; HCRTR1). [Related pubchem assays (depositor defined):AID434989, AID435008, AID463079, AID485270, AID492963, AID492964, AID492965, AID493232, AID504717, AID504718]. It counts as functional.
For assay [6], the target named is T3, Orexin receptor type 2 (Homo sapiens, UniProt O43614).
T3 sequence (O43614 whole entry): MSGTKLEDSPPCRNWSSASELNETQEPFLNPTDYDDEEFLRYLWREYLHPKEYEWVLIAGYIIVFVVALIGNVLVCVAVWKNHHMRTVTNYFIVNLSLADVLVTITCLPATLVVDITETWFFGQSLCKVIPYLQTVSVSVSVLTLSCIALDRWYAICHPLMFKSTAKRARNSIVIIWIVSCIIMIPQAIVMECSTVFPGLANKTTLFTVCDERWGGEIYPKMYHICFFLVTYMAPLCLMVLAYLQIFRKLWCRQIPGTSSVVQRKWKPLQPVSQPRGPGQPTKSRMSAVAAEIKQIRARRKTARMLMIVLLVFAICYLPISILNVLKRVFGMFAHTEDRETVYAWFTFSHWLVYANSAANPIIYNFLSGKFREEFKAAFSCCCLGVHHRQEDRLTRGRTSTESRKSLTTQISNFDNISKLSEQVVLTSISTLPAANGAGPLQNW
The assay can be described thus: Counterscreen assay for antagonists of the orexin 1 receptor (OX1R; HCRTR1): Fluorescence-based cell-based dose response assay for antagonists of the orexin 2 receptor (OX2R; HCRTR2), run by assay provider. The format is functional.

Assay [7] deals with T3, Orexin receptor type 2. The assay can be described thus: Counterscreen assay for antagonists of the orexin 1 receptor (OX1R; HCRTR1): Homogeneous Time Resolved Fluorescence (HTRF)-based cell-based dose response assay for antagonists of the orexin 2 receptor (OX2R; HCRTR2), run by assay provider. The format is functional.
The target of assay [8] is T4, ATP-dependent translocase ABCB1 (Homo sapiens, UniProt P08183). Description: inhibition of BCRP-mediated JC-1 efflux – Ig-MXP3 cells, flow cytometry, set 2, dose response (AID 504566).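 Note: flow cytometry median green fluorescence of retained JC-1 dye; potency of efflux pump inhibition measured as rising substrate retention.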 The format is functional. The settings on record: read-out: EC50_MICROM_.
T4 sequence (P08183 whole entry): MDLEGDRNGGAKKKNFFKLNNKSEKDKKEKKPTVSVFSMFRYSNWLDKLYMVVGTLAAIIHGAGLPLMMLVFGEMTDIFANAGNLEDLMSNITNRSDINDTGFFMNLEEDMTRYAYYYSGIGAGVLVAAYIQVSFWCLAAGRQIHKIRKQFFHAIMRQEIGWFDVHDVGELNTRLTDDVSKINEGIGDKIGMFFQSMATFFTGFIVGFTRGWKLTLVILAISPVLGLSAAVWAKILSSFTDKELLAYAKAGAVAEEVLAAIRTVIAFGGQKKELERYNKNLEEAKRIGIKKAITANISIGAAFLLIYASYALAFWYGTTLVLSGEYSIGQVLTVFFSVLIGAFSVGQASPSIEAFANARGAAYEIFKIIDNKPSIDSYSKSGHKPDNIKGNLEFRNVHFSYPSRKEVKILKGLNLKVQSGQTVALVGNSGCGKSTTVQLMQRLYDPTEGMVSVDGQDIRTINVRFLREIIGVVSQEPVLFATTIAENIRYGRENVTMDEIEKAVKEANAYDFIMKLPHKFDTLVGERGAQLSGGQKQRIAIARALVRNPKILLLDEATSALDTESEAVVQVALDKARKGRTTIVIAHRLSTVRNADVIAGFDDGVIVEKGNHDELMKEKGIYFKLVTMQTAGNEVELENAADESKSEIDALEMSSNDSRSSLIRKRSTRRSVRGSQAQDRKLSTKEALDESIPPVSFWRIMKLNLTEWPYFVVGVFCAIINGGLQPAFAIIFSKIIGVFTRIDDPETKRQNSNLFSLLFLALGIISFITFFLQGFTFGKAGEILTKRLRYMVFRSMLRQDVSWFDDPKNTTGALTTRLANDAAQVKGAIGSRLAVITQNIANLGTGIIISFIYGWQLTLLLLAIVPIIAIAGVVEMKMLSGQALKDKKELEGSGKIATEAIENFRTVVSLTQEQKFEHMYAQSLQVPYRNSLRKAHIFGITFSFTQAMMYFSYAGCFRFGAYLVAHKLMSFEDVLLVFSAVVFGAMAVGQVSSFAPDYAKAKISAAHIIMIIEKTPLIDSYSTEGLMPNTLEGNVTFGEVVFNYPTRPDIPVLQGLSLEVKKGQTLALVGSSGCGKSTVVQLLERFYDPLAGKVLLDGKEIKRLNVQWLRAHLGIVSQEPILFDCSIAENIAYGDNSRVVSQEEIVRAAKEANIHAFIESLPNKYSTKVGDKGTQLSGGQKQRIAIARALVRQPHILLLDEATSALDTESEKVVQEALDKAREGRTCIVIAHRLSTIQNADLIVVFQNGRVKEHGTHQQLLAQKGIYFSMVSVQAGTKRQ
For assay [9], the target named is T4, ATP-dependent translocase ABCB1. The assay can be described thus: P-gp JC-1 efflux blockade concentration-response – Jurkat-DNR cells, flow cytometry, set 2, dose response (AID 504569).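 Note: potency of pump inhibitors that raise cellular JC-1 green fluorescence up to the nicardipine level.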 The format is functional. The note with it: read-out: EC50_MICROM_.
The next assay in a line: cells. The format is functional.
Assay [10] concerns the target Benomyl/methotrexate resistance protein (Candida albicans, UniProt P28873). The assay can be described thus: Candida albicans Mdr1 pump inhibition curves – singleplex, Cherry Pick1 hits, dose response (AID 588608). The format is functional.
Assay [11] deals with T5, Multidrug resistance protein CDR2 (Candida albicans (strain SC5314 / ATCC MYA-2876) (Yeast), UniProt P78595).
T5 sequence (P78595 whole entry): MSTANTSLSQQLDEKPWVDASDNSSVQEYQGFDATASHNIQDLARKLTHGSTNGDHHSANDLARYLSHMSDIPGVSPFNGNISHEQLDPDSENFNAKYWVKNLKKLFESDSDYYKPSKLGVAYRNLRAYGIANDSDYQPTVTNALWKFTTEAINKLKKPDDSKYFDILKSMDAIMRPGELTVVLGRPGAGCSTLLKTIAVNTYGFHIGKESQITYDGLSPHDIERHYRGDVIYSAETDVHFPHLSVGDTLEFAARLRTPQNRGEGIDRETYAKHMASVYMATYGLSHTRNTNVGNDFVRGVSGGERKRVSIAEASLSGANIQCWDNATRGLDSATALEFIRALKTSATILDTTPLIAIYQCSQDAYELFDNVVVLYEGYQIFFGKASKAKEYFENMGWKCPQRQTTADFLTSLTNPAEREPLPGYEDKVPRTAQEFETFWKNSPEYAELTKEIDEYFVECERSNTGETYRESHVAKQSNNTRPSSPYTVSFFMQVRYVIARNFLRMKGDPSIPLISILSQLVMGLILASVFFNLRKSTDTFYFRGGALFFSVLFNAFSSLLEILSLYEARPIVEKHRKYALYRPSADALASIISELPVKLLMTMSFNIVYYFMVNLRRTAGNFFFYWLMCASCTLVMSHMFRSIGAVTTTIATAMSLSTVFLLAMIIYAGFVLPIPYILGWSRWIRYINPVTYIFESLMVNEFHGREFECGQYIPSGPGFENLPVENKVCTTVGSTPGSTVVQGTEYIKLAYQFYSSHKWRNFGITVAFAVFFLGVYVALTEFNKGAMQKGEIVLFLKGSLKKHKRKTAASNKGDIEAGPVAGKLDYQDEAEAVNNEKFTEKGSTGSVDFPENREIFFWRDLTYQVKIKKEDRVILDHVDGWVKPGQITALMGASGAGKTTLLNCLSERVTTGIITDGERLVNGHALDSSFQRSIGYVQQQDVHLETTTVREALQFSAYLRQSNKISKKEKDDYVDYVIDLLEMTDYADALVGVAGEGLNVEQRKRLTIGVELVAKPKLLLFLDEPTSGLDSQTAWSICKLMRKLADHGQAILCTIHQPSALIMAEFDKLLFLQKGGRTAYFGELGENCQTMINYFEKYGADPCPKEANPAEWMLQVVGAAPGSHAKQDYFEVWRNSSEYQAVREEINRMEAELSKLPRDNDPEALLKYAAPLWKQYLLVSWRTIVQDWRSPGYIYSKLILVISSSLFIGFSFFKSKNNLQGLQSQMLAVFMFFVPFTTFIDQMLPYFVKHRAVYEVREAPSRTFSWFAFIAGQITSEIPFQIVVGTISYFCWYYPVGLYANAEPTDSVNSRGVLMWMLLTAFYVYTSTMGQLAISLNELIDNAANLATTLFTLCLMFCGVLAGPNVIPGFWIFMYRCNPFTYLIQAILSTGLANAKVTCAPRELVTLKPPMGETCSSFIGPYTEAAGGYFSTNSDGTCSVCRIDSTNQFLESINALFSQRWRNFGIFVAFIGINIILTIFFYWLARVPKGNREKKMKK
Description: inhibition of Nile Red efflux via Candida CDR2 – S. cerevisiae AD1-8u, singleplex, Cherry Pick1 hits, dose response (AID 588604). It counts as functional.

Assay [12] in a line: inhibition of ARNT PAS-B/TACC3 complex formation – biochemical, AlphaScreen, cherry-picked samples, confirmation (AID 651703).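 Note: His-tagged ARNT PAS-B domain paired with GST-TACC3 E629A dimer coactivator fragment; potency of inhibitors that break up the complex and lower AlphaScreen signal.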 It counts as functional, Homo sapiens.

Structures are written as SMILES. Where “and” joins values, the source holds several entries; their conditions need not be identical. Equal entries are not always repeated. Calls of active or inactive are those of the source. Where only a bound is given, the exact number is not on record here.

Chain of DNA dC->dU-editing enzyme APOBEC-3G (Q9HC16 whole entry): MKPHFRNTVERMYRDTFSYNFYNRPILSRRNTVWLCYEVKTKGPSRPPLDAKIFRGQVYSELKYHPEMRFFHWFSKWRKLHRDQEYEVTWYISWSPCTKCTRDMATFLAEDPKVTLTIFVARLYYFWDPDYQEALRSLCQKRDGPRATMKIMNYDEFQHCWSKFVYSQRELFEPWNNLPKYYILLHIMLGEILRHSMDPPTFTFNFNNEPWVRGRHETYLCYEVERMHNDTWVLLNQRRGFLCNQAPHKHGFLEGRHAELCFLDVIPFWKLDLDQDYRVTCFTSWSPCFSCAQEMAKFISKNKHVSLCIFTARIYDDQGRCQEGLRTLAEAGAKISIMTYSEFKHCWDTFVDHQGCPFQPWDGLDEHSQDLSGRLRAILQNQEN
Chain of DNA dC->dU-editing enzyme APOBEC-3A (P31941 whole entry): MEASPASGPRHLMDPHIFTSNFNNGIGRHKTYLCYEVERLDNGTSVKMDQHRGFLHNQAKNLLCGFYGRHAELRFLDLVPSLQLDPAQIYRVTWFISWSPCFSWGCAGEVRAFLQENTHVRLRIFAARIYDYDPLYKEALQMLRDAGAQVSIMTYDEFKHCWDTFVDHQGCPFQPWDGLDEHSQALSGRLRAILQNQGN
Chain of Benomyl/methotrexate resistance protein (P28873 whole entry): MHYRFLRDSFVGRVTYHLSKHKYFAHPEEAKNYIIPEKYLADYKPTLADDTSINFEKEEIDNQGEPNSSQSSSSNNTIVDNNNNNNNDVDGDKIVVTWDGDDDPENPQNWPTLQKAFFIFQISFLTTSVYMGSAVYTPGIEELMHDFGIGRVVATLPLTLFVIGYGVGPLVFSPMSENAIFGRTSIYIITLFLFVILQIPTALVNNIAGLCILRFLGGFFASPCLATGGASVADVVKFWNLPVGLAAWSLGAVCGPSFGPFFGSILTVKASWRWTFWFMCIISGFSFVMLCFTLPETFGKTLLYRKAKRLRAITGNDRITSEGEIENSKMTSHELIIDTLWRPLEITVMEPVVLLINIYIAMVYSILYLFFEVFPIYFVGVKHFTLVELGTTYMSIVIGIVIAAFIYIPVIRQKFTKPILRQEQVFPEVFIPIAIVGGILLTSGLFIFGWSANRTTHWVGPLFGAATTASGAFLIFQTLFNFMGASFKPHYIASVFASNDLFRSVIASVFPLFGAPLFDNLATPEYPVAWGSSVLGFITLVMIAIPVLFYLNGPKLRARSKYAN

`CCC(C)n1c(SCC(=O)NCc2ccco2)nnc1-c1cccc(S(=O)(=O)N2CCOCC2)c1` (stereo not drawn): the IC50 in [1] and in assay [2] was > 99 µM (inactive) throughout.
Take `Cc1ccc(C(=O)N/C(=C/c2ccc(-c3cccc([N+](=O)[O-])c3)o2)C(=O)NC(C)(C)C)cc1`: the IC50 is > 66.3 µM (inactive) in the assay with CHO-K1; > 49.8 µM (inactive) in [3]; > 50 µM (inactive) at Coagulation factor XII; 2.09 µM (active) in assay [4]; > 5.53 µM (active) in assay [5]; 27.9 µM (inactive) at Orexin receptor type 2 [6]. Further, on Orexin receptor type 2 [7], the IC50 is 2.42 µM (active).
For the compound `O=C(c1ccco1)N1CCN(c2cc(-c3ccccc3)nc3cc(-c4cccc(Cl)c4)nn23)CC1`, the EC50 in assay [8] was 720 nM (active) and 2 µM (active); in [9] it was 2.67 µM (active) and 3.69 µM (active).
For `Cc1ccc(-c2nnc(SC(C)C(=O)NCc3ccco3)n2C)cc1` (stereo not drawn), the IC50 in assay [1] and in assay [2] was > 99 µM (inactive) throughout.
Consider `COc1ccc(CCOC(=O)c2ccc(N)c([N+](=O)[O-])c2)cc1`, for which the IC50 in “cells” was 21 µM (active). Further, the values for the EC50 in assay [10] and in [11] were 0.011 µM (active) and 4.29 µM (active), respectively.
Regarding `COC(=O)c1ccccc1NC(=O)CSc1nc(O)cc(=O)n1C1CCCC1`, the IC50 is > 66.2 µM (inactive) in the assay on CHO-K1; > 49.8 µM (inactive) in [3]; 0.137 µM (active) in assay [4]; 4.86 µM (active) in assay [5]; 56.2 µM (inactive) at Orexin receptor type 2 [6]; > 50 µM (inactive) on Orexin receptor type 2 [7].
In the case of `O=C(N/N=C1/CCS(=O)(=O)c2ccc(F)cc21)c1ccccn1`, the concentration at half-maximal activity (AC50) in assay [12] is 78.4 µM (active).

Values taken from ChEMBL document CHEMBL1201862, “PubChem BioAssay data set” (2004).
